Reference: patent US20110077702A1, “Means and Methods for Influencing Electrical Activity of Cells” (Academisch Medisch Centrum Bij de Universiteit van Amsterdam, priority 2008, published 2011)
Read-outs that look alike come from different tables or passages of the source.

Assays:
LBB preparations = test: Tissue bath studies of LBB preparations of injected animals; set-up: species or system dog
[1] = tested on: neonatal rat cardiac myocytes overexpressing HCN4; test: If activation curve, perforated patch-clamp, in HCN4 overexpressing NRCMs with PDE4 inhibition; type: cell-based; conditions: 100 nM rolipram
Experimental: (§1) Neonatal rat cardiac myocytes and CMPCs were transduced with LV-HCN4-GFP, TBX3-GFP and LV-GFP at a MOI of 0.1, HEK 293 cells were transfected with both HCN4 and GFP or EVY deleted HCN4 and GFP. Single electrophysiological cell experiments were performed 7-10 days and 2 months after transducing NRCMs and CMPCs, respectively, or after the HEK 293 transfection. Myocytes were trypsinized during 30 seconds to prepare them for patch-clamping. By this procedure, cardiac myocytes lost their cell-to-cell connections, became less flattened (which facilitated the use of glass micropipettes), but remained attached to the coverslip.
Action potentials, If and membrane currents were recorded at 36±0.2° using the perforated patch-clamp technique (Axopatch 200B Clamp amplifier, Axon Instruments Inc.). Signals were low-pass filtered (cut-off frequency: 5-kHz) and digitized at 5-kHz. Series resistance was compensated by ≧80%, and potentials were corrected for the estimated 15-mV change in liquid-junction potential. […]
If was characterized using custom voltage-clamp protocols modified from those published previously.^14,27 For current-voltage (I-V) relationships and activation properties, If was measured as Cs^+ sensitive (5 mM) current during 6-s hyperpolarizing steps (range −30 to −110 mV) from a holding potential of −30 mV. […]

[2] = tested on: neonatal rat cardiac myocytes; test: Spontaneous activity of single control NRCMs with PDE4 inhibition; type: cell-based; conditions: 100 nM rolipram
Experimental: as §1
Action potentials, If and membrane currents were recorded at 36±0.2° using the perforated patch-clamp technique (Axopatch 200B Clamp amplifier, Axon Instruments Inc.). Signals were low-pass filtered (cut-off frequency: 5-kHz) and digitized at 5-kHz. Series resistance was compensated by ≧80%, and potentials were corrected for the estimated 15-mV change in liquid-junction potential. For voltage control, data acquisition, and analysis, custom-made software was used. Superfusion solution contained (mM): 140 NaCl, 5.4 KCl, 1.8 CaCl2, 1.0 MgCl2, 5.5 glucose, 5 HEPES; pH 7.4 (NaOH). Pipettes (2-3 MΩ, borosilicate glass) were filled with solution containing (mM): 125 K-gluc, 20 KCl, 5 NaCl, 0.22 amphotericin-B, 10 HEPES; pH 7.2 (KOH).

`CC(C)NCC(O)c1ccc(O)c(O)c1` (stereo not shown) [isoproterenol, Isoproterenol] was tested, and the “spontaneous rate of HCN2/SkM1 preparation” value (LBB preparations) was “robust spontaneous activity sensitive to isoproterenol”.

`COc1ccc(C2CNC(=O)C2)cc1OC1CCCC1` (stereo not shown) [rolipram] was tested, and the “shift in the If activation curve” value [1] was “rightward shift in the If activation curve” and the spontaneous activity [2] was “remarkable increase in spontaneous activity”.

In the case of `COc1cc2c(cc1OC)CC(=O)N(CCCN(C)C[C@H]1Cc3cc(OC)c(OC)cc31)CC2` [Ivabradine], the “spontaneous rate of HCN2/SkM1 preparation” value (LBB preparations; isoproterenol enhanced rhythm, HCN2/SkM1 injected animals) is reported as “reductions in rate”.
